We go through 19 compounds from patent US11702417B2, “Compounds for improving mRNA splicing” (The General Hospital Corporation, priority 2015, dated 2023).

Data set [1] has as its system FD (familial dysautomonia) IKBKAP minigene, exon 20 inclusion, in HEK293T cells. Description: Primary splicing assay (FD IKBKAP minigene, Firefly/Renilla luciferase reporter in HEK293T). The class given is cell-based, human. To be noted: for EC (maximum kinetin efficacy) / Emax: Homo sapiens, HEK-293T; for EC (maximum kinetin efficacy): HEK293T, read-out: ECk (compound concentration at which the maximum kinetin efficacy (200 μM) is reached). In general terms: In a reporter assay the amount or activity of a reporter protein is the signal.

Data set [2] deals with IKBKAP splicing (exon 20 inclusion) in FD fibroblasts GM04663. Description: Secondary assay: IKBKAP splicing analysis by RT-PCR in FD fibroblasts GM04663. The class given is cell-based. As to conditions: Homo sapiens, FD fibroblasts GM04663, 24 hours of treatment, read-out: % exon Inclusion Normalized.
A short description of data set [3]: In vivo FD mouse model: presence of compound in plasma and brain. To be noted: oral gavage eight days, 1 hour after last dose. On the procedure: Compound (100) was administered by oral gavage for eight days at 60 mg/kg/day, 30 mg/kg/day and 10 mg/kg/day to the mouse transgenic familial dysautonomia (FD) model. Every dosing group and the control group (vehicle) consisted of 6 mice. The mice were given food and water ad libitum, and changes in body weights were monitored on a daily basis. On the eighth day the mice were dosed for the last time and after 1 hour the mice were sacrificed and dissected. Plasma, liver, kidney, heart and brain were collected.

The subject of a further data set is IKBKAP exon 20 inclusion. Put plainly: In vivo familial dysautonomia mouse model: splicing analysis in tissues. As to conditions: for inclusion of exon 20 in C57BI6-FD mouse tissues (FIGS. 1A-6): 10, 30 and 60 mg/kg/day, 8 days. As to the method: […] Every dosing group and the control group (vehicle) consisted of 6 mice. The mice were given food and water ad libitum, and changes in body weights were monitored on a daily basis. On the eighth day the mice were dosed for the last time and after 1 hour the mice were sacrificed and dissected. Plasma, liver, kidney, heart and brain were collected.
The following solutions were prepared daily: Compound (230) in 10% DMA/45% PEG 300/12% EtOH/33% sterile water; and Compound (270) in 10% DMA/45% PEG 300/12% EtOH/33% sterile water.
[…] Six transgenic mice were fed daily with 10% DMA/45% PEG 300/12% EtOH/33% sterile water solution for the same duration. The mice were given food and water ad libitum, and changes in body weights were monitored on a daily basis. On the eighth day the mice were dosed for the last time and after 1 hour were sacrificed and dissected. Plasma, lungs, muscle, liver, heart, brain, kidney, sciatic nerve, and trigeminal nerve were collected. Splicing was evaluating by RT-PCT and IKAP protein was evaluated using Western Blotting.

Another data set has as its system IKAP protein. Put plainly: In vivo FD mouse model: IKAP protein in liver by western blot. To be noted: 400 mg/kg/day. As to the method: Six transgenic mice were fed daily with 10% DMA/45% PEG 300/12% EtOH/33% sterile water solution for the same duration. The mice were given food and water ad libitum, and changes in body weights were monitored on a daily basis. On the eighth day the mice were dosed for the last time and after 1 hour were sacrificed and dissected. Plasma, lungs, muscle, liver, heart, brain, kidney, sciatic nerve, and trigeminal nerve were collected. Splicing was evaluating by RT-PCT and IKAP protein was evaluated using Western Blotting. Protein extracts were obtained by homogenizing liver or cell pellets in RIPA buffer (Tris-HCl 50 mM, pH 7.4; NaCl 150 mM; NP-40 1%; Sodium deoxycholate 0.5%; SDS 0.1%) containing protease inhibitor cocktail (Sigma), DTT (100 μM) and PMSF (100 μM). Insoluble debris were discarded after centrifugation and protein concentration was determined using Pierce® […] BCA Protein Assay Kit (Thermo Scientific). 50 μg of protein was separated on NuPage 4-12% Bis-Tris Gel (Invitrogen) and transferred into nitrocellulose membrane (Thermo Scientific). […]
On the technique in general: A western blot detects proteins with antibodies after separation by electrophoresis.

The next data set has as its system IKBKAP splicing. To be noted: mice, oral, 400 mg/kg/day for 7 days; cited from earlier work.
The test system of data set [4] is normal IKBKAP mRNA in peripheral blood. To be noted: human patients and carriers of familial dysautonomia, preliminary testing; cited from earlier work.
Setting [5] is: Firefly/Renilla ratio, 24 hours of treatment.
Setting [6] is: max efficacy in Primary Assay, Firefly/Renilla ratio, kinetin and DMSO as positive and negative controls, 24 hours of treatment, read-out: Emax (%).

Read-outs that look alike come from different tables or passages of the source.

For the compound `Clc1nc(NCc2ccncc2)c2cc[nH]c2n1` [(100)], in data set [1] (setting [5]), the EC (maximum kinetin efficacy) came out at 2.18 µM. In data set [1] (setting [6]), the Emax was determined as 235%. In data set [2], the activation at 0.08 µM was 22.6% and the activation at 0.8 µM stood at 62.1%. In data set [3], the “presence of compound in brain” value is reported as “evident in the brain” and the “presence of compound in plasma” value is recorded as “presence of (100) in the plasma”.
On to `Clc1nc(NCc2nccs2)c2cc[nH]c2n1` [(107)], for which, in data set [1] (max efficacy, Firefly only, footnote c: Renilla interference/Firefly only, read-out: Emax (%) Firefly only), the Emax turned out to be 184%. Also, the “ECk, Firefly only” value in data set [1] (Renilla interference/Firefly only (footnote c)) was found to be 4.58 µM⁻¹. In data set [2], the activation at 0.08 µM was found to be 25.6% and the activation at 0.8 µM stood at 93.2%.
For `COc1nc2c(NCc3nccs3)nc(Cl)nc2[nH]1` [(230)], the EC (maximum kinetin efficacy) in data set [1] (setting [5]) was 1.5 µM. In addition, in data set [1] (setting [6]), the Emax was found to be 216%. Further, in data set [2], the activation at 0.08 µM was 22.3% and the activation at 0.8 µM worked out at 70%. In the data set with IKBKAP exon 20 inclusion, the “inclusion of exon 20 in C57BI6-FD mouse tissues (FIGS. 1A-6)” value is on record as “useful for improving inclusion of exon 20”.
Take `Clc1nc(NCc2ccco2)c2nc(OC3COC3)[nH]c2n1` [(269)]: the EC (maximum kinetin efficacy) in data set [1] (setting [5]) is 1.39 µM. Moreover, the Emax in data set [1] (setting [6]) is 119%. In addition, in data set [2], the activation at 0.08 µM worked out at 34.8% and the activation at 0.8 µM worked out at 102%.
With `FC(F)(F)COc1nc2c(NCc3ccco3)nc(Cl)nc2[nH]1` [(270)], the EC (maximum kinetin efficacy) in data set [1] (setting [5]) worked out at 0.59 µM. In data set [1] (setting [6]), the Emax was determined as 218%. In addition, in data set [2], the activation at 0.08 µM came out at 28.7% and the activation at 0.8 µM was found to be 101%. The “inclusion of exon 20 in C57BI6-FD mouse tissues (FIGS. 1A-6)” value with IKBKAP exon 20 inclusion is “useful for improving inclusion of exon 20”.
Turning to `CCCOc1nc2c(NCc3nccs3)nc(Cl)nc2[nH]1` [(271)], the EC (maximum kinetin efficacy) in data set [1] (setting [5]) turned out to be 0.29 µM. For the same compound, in data set [1] (setting [6]), the Emax turned out to be 206%. Further, in data set [2], the activation at 0.08 µM turned out to be 62.2% and the activation at 0.8 µM was determined as 107%.
The corresponding values for `OCCOc1nc2c(NCc3ccco3)nc(Cl)nc2[nH]1` [(275)] are 0.75 µM, 230%, 37.2% and 101%.
For `Clc1nc(NCc2ccco2)c2nn[nH]c2n1` [(285)], in data set [1] (setting [5]), the EC (maximum kinetin efficacy) is 6.78 µM. In addition, the Emax in data set [1] (setting [6]) worked out at 115%. Also, in data set [2], the activation at 0.08 µM came to 0.06% and the activation at 0.8 µM worked out at 1.46%.
For the compound `FC(F)(F)COc1nc2c(NCc3nccs3)nc(Cl)nc2[nH]1` [(302)], the EC (maximum kinetin efficacy) in data set [1] (setting [5]) came out at 1.42 µM. Moreover, the Emax in data set [1] (setting [6]) turned out to be 176%. Moreover, in data set [2], the activation at 0.08 µM was determined as 23.3% and the activation at 0.8 µM was 90.8%.
The corresponding values for `COCCOc1nc2c(NCc3ccncn3)nc(Cl)nc2[nH]1` [(319)] are 1.56 µM, 204%, 14.2% and 77.8%.
Turning to `CCOc1nc2c(NCc3ccncn3)nc(Cl)nc2[nH]1` [(320)], the EC (maximum kinetin efficacy) in data set [1] (setting [5]) came out at 0.52 µM. For the same compound, in data set [1] (setting [6]), the Emax came out at 208%. Besides, in data set [2], the activation at 0.08 µM turned out to be 47.1% and the activation at 0.8 µM turned out to be 103%.
On to `Clc1nc(NCc2nccs2)c2nc(OCC3CCO3)[nH]c2n1` (stereo not shown) [(346)], for which the EC (maximum kinetin efficacy) in data set [1] (setting [5]) came out at 1.42 µM. In addition, the Emax in data set [1] (setting [6]) came to 181%. Besides, in data set [2], the activation at 0.08 µM amounted to 23.2% and the activation at 0.8 µM turned out to be 58.6%.
The corresponding values for `FC(F)COc1nc2c(NCc3nccs3)nc(Cl)nc2[nH]1` [(347)] are 0.77 µM, 186%, 18.3% and 72%.
As for `Clc1nc(NCc2nccs2)c2nc(OCc3cscn3)[nH]c2n1` [(348)], the EC (maximum kinetin efficacy) in data set [1] (setting [5]) was 0.7 µM. The Emax in data set [1] (setting [6]) turned out to be 171%. In addition, in data set [2], the activation at 0.08 µM amounted to 49% and the activation at 0.8 µM is 102%.
In the case of `FC(F)COc1nc2c(NCc3ccncn3)nc(Cl)nc2[nH]1` [(349)], the EC (maximum kinetin efficacy) in data set [1] (setting [5]) was found to be 0.29 µM. The maximal response (Emax) in data set [1] (setting [6]) worked out at 227%. In addition, in data set [2], the activation at 0.08 µM stood at 27.1% and the activation at 0.8 µM was found to be 95.3%.
Regarding `FC1(F)CC(COc2nc3c(NCc4nccs4)nc(Cl)nc3[nH]2)C1` [(362)], the EC (maximum kinetin efficacy) in data set [1] (setting [5]) came to 0.22 µM. For the same compound, the Emax in data set [1] (setting [6]) stood at 250%. In addition, in data set [2], the activation at 0.08 µM came to 63.8% and the activation at 0.8 µM is 105%.
Take `Clc1nc(NCc2cscn2)c2cc[nH]c2n1` [(372)]: the EC (maximum kinetin efficacy) in data set [1] (setting [5]) came out at 3.71 µM. Moreover, the Emax in data set [1] (setting [6]) was found to be 126%. Besides, in data set [2], the activation at 0.08 µM was found to be 13.4% and the activation at 0.8 µM was 48.7%.
`FCCn1ncc2c(NCc3ccco3)nc(Cl)nc21` [Example 12, 6-Chloro-1-(2-fluoroethyl)-N-(furan-2-ylmethyl)-1H-pyrazolo[3,4-d]pyrimidin-4-amine]: the melting point was in the range of 125 to 128 °C.
As to `c1coc(CNc2ncnc3nc[nH]c23)c1` [kinetin, N^6-furfuryladenine, reference compound], the activation at 200 µM in data set [2] (200 μM (kinetin control)) was determined as 100%. Further, the splicing in kidney result with IKBKAP exon 20 inclusion (400 mg/kg/day) was “no significant changes in splicing”. The splicing in brain result with IKBKAP exon 20 inclusion (400 mg/kg/day, 8 days of treatment) is “no significant change”. Besides, the “level of the IKAP protein in liver” value in the data set on IKAP protein is on record as “no significant changes”. Besides, the “IKBKAP splicing in vivo in certain tissues, including the brain” value with IKBKAP splicing is recorded as “improve IKBKAP splicing in vivo”. In data set [4], the “normal IKBKAP mRNA in peripheral blood” value was “increased normal IKBKAP mRNA in peripheral blood”.

Usually Emax stands for the greatest response seen or fitted, relative to the assay's reference. In general, melting point refers to the temperature, or range, at which the solid turns liquid.
